What was measured:
Histone deacetylase 5 = Histone deacetylase 5 (Homo sapiens, UniProt Q9UQL6); experiment: Inhibition of human recombinant HDAC5 using acetyl-Lys(trifluoroacetyl)-AMC substrate by fluorescence based assay
Rattus norvegicus = species on record: Rattus norvegicus; experiment: Effect on SOD activity in brain of rat with ischemia/reperfusion injury assessed as enzyme activity per mg protein; format: functional
Histone deacetylase 9 = Histone deacetylase 9 (Homo sapiens, UniProt Q9UKV0); experiment: Inhibition of human recombinant HDAC9 using acetyl-Lys(trifluoroacetyl)-AMC substrate by fluorescence based assay
[1] = Inhibition of inositol monophosphatase (unknown origin); design: species or system Homo sapiens
[2] = Inhibition of Aspergillus fumigatus TrxR
[3] = target: T1, Protein deacetylase HDAC6 (Homo sapiens, UniProt Q9UBN7); experiment: Inhibition of human recombinant HDAC6 using RHKKAc-AMC substrate by fluorescence based assay
T1 sequence (Q9UBN7 whole entry): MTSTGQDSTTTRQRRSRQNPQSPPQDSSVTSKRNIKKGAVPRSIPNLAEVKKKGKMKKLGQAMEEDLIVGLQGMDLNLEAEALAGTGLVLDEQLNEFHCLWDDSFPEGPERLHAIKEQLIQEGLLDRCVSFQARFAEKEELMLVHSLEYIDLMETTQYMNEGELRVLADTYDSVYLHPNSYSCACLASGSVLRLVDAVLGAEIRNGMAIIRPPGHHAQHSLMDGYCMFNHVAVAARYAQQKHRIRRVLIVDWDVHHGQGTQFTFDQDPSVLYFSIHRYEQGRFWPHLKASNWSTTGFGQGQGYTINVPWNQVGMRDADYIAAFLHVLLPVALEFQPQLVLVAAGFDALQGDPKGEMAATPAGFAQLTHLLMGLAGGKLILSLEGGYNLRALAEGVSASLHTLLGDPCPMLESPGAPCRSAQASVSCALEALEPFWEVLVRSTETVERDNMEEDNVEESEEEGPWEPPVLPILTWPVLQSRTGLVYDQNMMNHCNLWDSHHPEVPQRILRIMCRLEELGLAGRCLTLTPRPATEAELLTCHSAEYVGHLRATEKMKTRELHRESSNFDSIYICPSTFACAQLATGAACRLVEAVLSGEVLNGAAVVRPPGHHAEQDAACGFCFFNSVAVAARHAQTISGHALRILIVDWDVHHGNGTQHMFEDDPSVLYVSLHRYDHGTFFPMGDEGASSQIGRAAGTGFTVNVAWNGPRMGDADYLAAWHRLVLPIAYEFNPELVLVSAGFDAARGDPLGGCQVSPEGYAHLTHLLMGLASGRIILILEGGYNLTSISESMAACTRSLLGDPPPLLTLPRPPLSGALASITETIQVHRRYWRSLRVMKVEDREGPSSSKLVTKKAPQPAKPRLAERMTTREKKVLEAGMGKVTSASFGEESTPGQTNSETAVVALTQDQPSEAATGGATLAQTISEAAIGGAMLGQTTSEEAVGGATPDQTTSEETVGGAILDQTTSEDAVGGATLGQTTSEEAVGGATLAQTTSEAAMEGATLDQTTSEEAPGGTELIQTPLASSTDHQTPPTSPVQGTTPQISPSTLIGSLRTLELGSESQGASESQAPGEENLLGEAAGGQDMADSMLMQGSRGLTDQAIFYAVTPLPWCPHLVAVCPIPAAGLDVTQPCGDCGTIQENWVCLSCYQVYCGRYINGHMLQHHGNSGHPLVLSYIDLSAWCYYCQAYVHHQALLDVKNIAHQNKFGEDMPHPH

[4] = Inhibition of Candida albicans H+-ATPase
[5] = Inhibition of Bacillus anthracis TrxR
Cryptosporidium parvum = experiment: Substrate activity at Cryptosporidium parvum glucose 6-phosphate isomerase

Sequence of Histone deacetylase 9 (Q9UKV0 whole entry): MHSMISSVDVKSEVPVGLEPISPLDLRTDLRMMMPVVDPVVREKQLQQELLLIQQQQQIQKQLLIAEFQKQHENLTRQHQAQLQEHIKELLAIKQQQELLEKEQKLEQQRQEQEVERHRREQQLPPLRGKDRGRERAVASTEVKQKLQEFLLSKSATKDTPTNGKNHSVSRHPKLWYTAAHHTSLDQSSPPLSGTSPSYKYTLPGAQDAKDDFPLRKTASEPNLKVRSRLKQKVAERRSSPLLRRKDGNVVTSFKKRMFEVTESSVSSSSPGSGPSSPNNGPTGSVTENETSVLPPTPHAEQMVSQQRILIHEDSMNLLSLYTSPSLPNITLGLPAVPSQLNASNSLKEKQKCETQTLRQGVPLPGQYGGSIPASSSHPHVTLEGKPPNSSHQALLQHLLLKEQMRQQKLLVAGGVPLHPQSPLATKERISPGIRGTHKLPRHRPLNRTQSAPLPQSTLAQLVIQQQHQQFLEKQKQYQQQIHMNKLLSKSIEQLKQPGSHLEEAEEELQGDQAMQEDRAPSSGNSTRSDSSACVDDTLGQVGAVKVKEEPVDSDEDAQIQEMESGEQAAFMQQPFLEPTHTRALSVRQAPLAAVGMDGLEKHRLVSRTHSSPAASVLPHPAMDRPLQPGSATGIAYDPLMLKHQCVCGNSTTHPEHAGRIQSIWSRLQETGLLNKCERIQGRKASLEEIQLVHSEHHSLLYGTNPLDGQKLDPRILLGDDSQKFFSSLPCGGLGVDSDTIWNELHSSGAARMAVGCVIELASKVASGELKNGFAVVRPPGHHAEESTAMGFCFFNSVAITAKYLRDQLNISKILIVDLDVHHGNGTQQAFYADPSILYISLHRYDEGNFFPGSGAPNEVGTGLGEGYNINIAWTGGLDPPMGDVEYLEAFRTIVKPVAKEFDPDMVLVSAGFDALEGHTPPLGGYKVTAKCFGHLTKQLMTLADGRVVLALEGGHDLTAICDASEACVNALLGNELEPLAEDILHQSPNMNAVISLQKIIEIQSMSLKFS
Sequence of Histone deacetylase 5 (Q9UQL6 whole entry, the tested form may be a part): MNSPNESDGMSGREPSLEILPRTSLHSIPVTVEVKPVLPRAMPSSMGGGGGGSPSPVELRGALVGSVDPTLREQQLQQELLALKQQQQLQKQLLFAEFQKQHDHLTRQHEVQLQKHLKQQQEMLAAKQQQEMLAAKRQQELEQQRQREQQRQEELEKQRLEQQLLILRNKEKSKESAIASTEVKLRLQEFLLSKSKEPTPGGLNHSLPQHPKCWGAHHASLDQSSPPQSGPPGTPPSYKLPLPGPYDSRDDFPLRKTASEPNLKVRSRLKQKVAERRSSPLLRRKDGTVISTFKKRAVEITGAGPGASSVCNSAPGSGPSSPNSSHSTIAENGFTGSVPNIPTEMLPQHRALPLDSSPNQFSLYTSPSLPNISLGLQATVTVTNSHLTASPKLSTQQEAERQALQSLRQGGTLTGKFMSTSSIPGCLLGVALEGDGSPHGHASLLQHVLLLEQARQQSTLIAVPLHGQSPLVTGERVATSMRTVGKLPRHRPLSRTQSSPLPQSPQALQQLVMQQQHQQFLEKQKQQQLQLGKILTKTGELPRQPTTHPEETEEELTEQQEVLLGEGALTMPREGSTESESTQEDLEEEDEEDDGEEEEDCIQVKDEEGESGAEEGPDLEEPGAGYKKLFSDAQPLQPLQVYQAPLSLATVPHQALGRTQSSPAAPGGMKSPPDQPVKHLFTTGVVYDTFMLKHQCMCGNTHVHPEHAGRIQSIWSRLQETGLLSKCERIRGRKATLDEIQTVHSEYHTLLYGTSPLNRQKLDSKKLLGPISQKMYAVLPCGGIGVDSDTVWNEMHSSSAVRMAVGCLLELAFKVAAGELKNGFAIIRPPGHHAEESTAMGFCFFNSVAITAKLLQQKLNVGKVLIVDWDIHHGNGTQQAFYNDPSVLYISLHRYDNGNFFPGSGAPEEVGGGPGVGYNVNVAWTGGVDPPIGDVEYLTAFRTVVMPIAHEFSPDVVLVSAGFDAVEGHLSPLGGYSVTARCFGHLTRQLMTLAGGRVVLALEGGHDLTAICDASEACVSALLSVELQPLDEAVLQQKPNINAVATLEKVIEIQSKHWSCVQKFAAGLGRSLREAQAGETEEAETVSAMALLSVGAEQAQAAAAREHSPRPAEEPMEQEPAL

O=c1c2ccccc2[se]n1-c1ccccc1 [EBSELEN]
IC50 (Histone deacetylase 5): 3.4 µM | Activity (Rattus norvegicus): 0.105 U | IC50 (Histone deacetylase 9): 3.7 µM | IC50 [1]: 1.5 µM | Ki [2]: 0.22 µM | IC50 [3]: 6.9 µM | IC50 [4]: 3.9 µM | IC50 [5]: 1 µM | Km (Cryptosporidium parvum): 309 µM
